Source: publication PMC3864132 (Cancer immunology, immunotherapy : CII, 2013)

What was measured:
HHD×ERG^pb/pb mice = conditions: mouse, in vivo; SD
HHD mice = conditions: mean from 3 mice ± SD
[1] = system: metastatic melanoma patients; conditions: in combination with IL-2, metastatic melanoma patients; cited from earlier work

Row | Substance | ERG295 responsive T-cells (HHD×ERG^pb/pb mice) | ERG295 responsive cells per million splenocytes (HHD×ERG^pb/pb mice) | ERG295 responsive cells per million splenocytes (HHD mice; HHD mice around 16 weeks old, 1 immunization) | ERG295 responsive T-cells (HHD mice; HHD mice, 3 immunizations at 7-day intervals) | Median overall survival [1]
1 | QLWQFLLEL [ERG295] | 305 ± 49 | 177 ± 51 per million splenocytes | 275 ± 45 per million splenocytes | 405 ± 120 | 
2 | gp100:209:217(210M): HLA-A*0201 restricted melanoma epitope (IMDQVPFSV; UniProt P40967 209-217, looked up, variant T210M) |  |  |  |  | significantly improved median overall survival
